Source: patent US20220296536A1, “PAIN MANAGEMENT METHODOLOGY” (priority 2019, published 2022)
Read-outs that look alike come from different tables or passages of the source.

How the values were obtained:
pain in a patient [1] = assay: earlier pharmaceutical treatment of Patient A's pain; assay type: in vivo, human; details: terminal prostate cancer, before use of the method
Source text: Patient A was a person having terminal prostate cancer. Patient A was suffering a high level of pain, for which pharmaceutical treatment, even morphine, had become ineffective.

pain in a patient [2] = system: pain in a patient
Method: In each of the examples, below, the method of the invention was used: the patient was aurally isolated in a quiet room, being the waiting room or vestibule to an operating theatre with only the deliverer present during the aural isolation period. The patient was exposed to the repetitive, positive message delivered orally by the deliverer. The chosen period was between 20 and 30 minutes. The deliverer repeated the message constantly during the chosen period. The message was: ‘When I wake up, I will have no pain’.
At the conclusion of the chosen period, the patient was administered propofol and became unconscious.

[3] = Example 5, Patient B, hip replacement

Row | SMILES | effect of pharmaceutical treatment on high level of pain (pain in a patient [1]) | pain after surgery (pain in a patient [2]; Example 1, Patient A, terminal prostate cancer, surgery for incontinence problem, from regaining consciousness until three weeks later) | pain (pain in a patient [2]; Example 2, Patient B, bleeding on the brain, skull drilled to drain blood) | pain post-surgery (pain in a patient [2]; Example 3, Patient B, cataract surgery) | post-operative pain (pain in a patient [2]; Example 4, Patient B, radical endoscopic sinus surgery) | pain post-surgery (pain in a patient [2]; [3]) | recovery (pain in a patient [2]; [3]) | time to being ambulatory (pain in a patient [2]; Example 5, Patient B, hip replacement, 7 days bed rest normally expected) | pain after surgery (pain in a patient [2]; Example 6, Patient B, painful infection within left shoulder, surgery) | pain post-surgery (pain in a patient [2]; Example 7, Patient B, osteomyelitis in right hip, stripping of veins and skin graft) | pain post-surgery (pain in a patient [2]; Example 8, Patient B, open-heart surgery to replace aortic valve, three surgeries) | pain post-surgery (pain in a patient [2]; Example 9, Patient C, hip replacement) | pain post-surgery (pain in a patient [2]; Example 10, Patient D, radical hysterectomy) | need for pharmaceutical pain relief after use of the method (pain in a patient [2]; all patients of Examples 1-10, propofol given after 20-30 min aural isolation with message) | recovery from surgery (pain in a patient [2]; all patients of the examples, when surgery was used)
1 | CN1CC[C@]23c4c5ccc(O)c4O[C@H]2[C@@H](O)C=C[C@H]3[C@H]1C5 [morphine] | ineffective |  |  |  |  |  |  |  |  |  |  |  |  |  | 
2 | CC(C)c1cccc(C(C)C)c1O [propofol, 2,6-diisopropylphenol] |  | free of pain | experienced no pain | experienced no pain post-surgery | experienced no post-operative pain | no pain post-surgery | accelerated recovery | ambulatory within one hour | pain-free | no pain post-surgery | no pain post-surgery each time | no pain post-surgery | experienced no pain post-surgery | None of the patients in the examples below required pharmaceutical pain relief | All experienced accelerated recovery from surgery
